Legend:
[1] = test system: Patients with IH; conditions: cited from earlier work
[2] = test system: adults with IH; test: Phase 2 IH study: Epworth Sleepiness Scale (ESS); assay type: in vivo, human; conditions: for ESS, Mean, Titration Baseline: before treatment; for ESS, Mean, Randomization Baseline (Week 5): end of open-label titration; for ESS, Difference in LS Mean (SE): SDX vs placebo, ANCOVA
Excerpt: “Epworth Sleepiness Scale” or “ESS,” as it relates to the present technology, means a self-administered questionnaire with 8 questions. Respondents are asked to rate, on a 4-point scale (0-3), their usual chances of dozing off or falling asleep while engaged in eight different activities. Most people engage in those activities at least occasionally, although not necessarily every day. The ESS score (the sum of 8 item scores, 0-3) can range from 0 to 24. The higher the ESS score, the higher that person's average sleep propensity in daily life (ASP), or their ‘daytime sleepiness’. ESS score are generally interpreted as follows: 0-5, lower normal daytime sleepiness; 6-10 higher normal daytime sleepiness; 11-12, mild excessive daytime sleepiness; 13-15, moderate excessive daytime sleepiness; and 16-24, severe excessive daytime sleepiness. [https://epworthsleepinessscale.com/about-theess/]herein incorporated by reference.
(§1) A double-blind, placebo-controlled, randomized-withdrawal, dose-optimizing, multi-center study investigated the safety and efficacy of serdexmethylphenidate for the treatment of IH. Twenty-two (22) patients completed a 7-week study consisting of two parts. Part 1 of the trial comprised a five-week open-label titration phase during which patients were optimized to one of four total daily doses of serdexmethylphenidate (80, 160, 240, or 320 mg/day). About half the study participants were assigned to take the total daily dose of study drug once per day just before going to bed (QD dosing cohort). The other half was instructed to take half the daily dose of study drug in the morning after awakening and the second half of the daily dose just before going to bed (BID dosing cohort). The titration procedure during the 5-week open label period was conducted as follows: patient treatment was initiated with the lowest total daily dose (80 mg/day) regardless of dosing regimen. At subsequent clinical visits scheduled at intervals of about 1 week each, the dose of the patient was either decreased (except after the first week), maintained, or increased based on tolerability, clinical effect, and adverse events. Depending on the severities of any dose-limiting effects as determined by the clinician, the dose was decreased if possible or the patient was discontinued from the study. If the dose was tolerated by the patient and the clinician determined an opportunity to improve effectiveness, the dose of study drug was increased if possible. Otherwise, the dose was maintained in the subsequent week.
(§2) Part 2 of the trial comprised a two-week randomized (2:1), double-blind, withdrawal phase, during which two-thirds of the trial participants continued to receive their optimized dose while the remaining one-third received placebo. During the withdrawal phase, patients continued the same dosing regimen (QD or BID) they were assigned to at treatment initiation and adhered to during the titration phase.
(§3) Secondary efficacy endpoints included Excessive Daytime Sleepiness (EDS) assessed with the Epworth Sleepiness Scale (ESS). Additional secondary endpoints were based on the Idiopathic Hypersomnia Severity Scale (IHSS), daily rating of difficulty of waking up in the morning assessed with the Sleep Inertia Visual Analog Scale (SI-VAS), and rating of brain fog symptoms measured with an exploratory Brain Fog Scale (BFS). Scores on the ESS, IHSS, and BFS were based on a 1-week look-back period.
The minimally clinically important difference for the ESS scale is 2-3 points. The horizontal dashed line at an ESS score of 10 points marks the boundary between “normal” levels of daytime sleepiness and “excessive” levels of daytime sleepiness. Scores of 10 and less are generally considered “healthy” or “normal” levels of daytime sleepiness whereas scores greater than 10 are considered “excessive”.

[3] = test system: adults with IH; test: Phase 2 IH study: Sleep Inertia Visual Analog Scale (SI-VAS); assay type: in vivo, human; conditions: for SI-VAS, Mean, Titration Baseline: before treatment; for SI-VAS, Mean, Randomization Baseline (Week 5): end of open-label titration; for SI-VAS, Difference in LS Mean (SE): SDX vs placebo, ANCOVA; for Decrease in mean SI-VAS score: 5-week titration period
Excerpt: “Sleep Inertia Visual Analog Scale” or “SI-VAS,” as it relates to the present technology, is a psychometric response scale to assess how difficult it was for the patient to wake up in the morning. The SI-VAS is a unipolar scale anchored at 0 (“very easy”) and 100 (“very difficult”).
as §1, §2, §3
The SI-VAS is a unipolar scale anchored at 0 (“very easy”) and 100 (“very difficult”). The horizontal dashed line at an SI-VAS score of 50 points represents the midpoint between individuals finding it very easy to awaken and individuals finding it very difficult to awaken in the morning. SI-VAS Patients on the QD dosing schedule reported a decrease of about 33 points in mean SI-VAS score over the 5-week titration period while being treated with conjugate of d-methylphenidate, while patients on the BID dosing schedule reported a decrease in mean SI-VAS of about 24-30 points.

[4] = Comparator study with Ritalin: plasma d-MPH PK; assay type: in vivo, human; conditions: for CL/F - Geo Mean: plasma d-MPH
Experimental: Ritalin is a racemate of d-methylphenidate approved for treating narcolepsy, which is a similar disorder of hypersomnolence characterized by significant excessive daytime sleepiness. The PK profiles of patient administered 80 mg or 200 mg of serdexmethylphenidate are compared to the PK profiles of patients administered 40 mg of Ritalin twice, 5 hours apart, and a single dose of 80 mg of Ritalin.

[5] = test system: adults with IH; test: Phase 2 IH study: Brain Fog Scale (BFS); assay type: in vivo, human; conditions: for Brain Fog, Mean, Titration Baseline: before treatment; for Brain Fog, Mean, Randomization Baseline (Week 5): end of open-label titration; for Brain Fog, Difference in LS Mean (SE): SDX vs placebo, ANCOVA
Excerpt: “Brain Fog Symptom Score” or “BFS” as it relates to the present technology, means the total score collected with a 19-item questionnaire asking the respondents to describe their mental state while experiencing “Brain Fog” during the last week. The currently recognized 19 mental states of BF include forgetful, difficulty thinking, difficulty focusing, cloudy, difficulty finding the right words/communicating, mental fatigue, slow, mind went blank, spacey, difficulty processing what others say, exhausted, easily distracted, difficulty processing words read, confused, annoyed, sleepy, lost, detached, thoughts moving too quickly. Each item is answered based on a 0 to 4-point Likert scale where 0 means “strongly disagree” and 4 means “strongly agree”.
as §1, §2, §3
The BFS scale is based on a 19 item questionnaire where each question is scored on a 0-4 Likert scale where a score of 0 means “strongly disagree”, a score of 2 means “neutral”, and a score of 4 means “strongly agree”. Possible BFS total scores range from 0 to 76. The horizontal dashed line at a BFS score of 38 points represents the total BFS score of for “neutral” responses to all 19 questions.

[6] = Single oral dose of 240 mg serdexmethylphenidate in the morning or at night before bedtime, randomized crossover; plasma d-MPH PK by LC/MS-MS; assay type: in vivo, human; conditions: evening vs morning dosing
Experimental: Heathy adult subjects received single oral doses of 240 mg serdexmethylphenidate, either in the morning or at night, just before bedtime, in a randomized crossover fashion with a washout of 6 days between treatments. Subjects went to bed and nighttime conditions were maintained after administration of the evening dose. Multiple blood PK samples and safety parameters were collected after each administration. d-MPH was measured with a validated LC/MS-MS method. A total of 15 subjects (9 males/6 females) were randomized with 14 completing both treatments.

[7] = Comparison of serdexmethylphenidate to other prescription treatments for sleep disorders (key attributes)
Excerpt: The data presented in the preceding examples supports the conclusion that serdexmethylphenidate has several advantages over other treatments for IH.
Most importantly, serdexmethylphenidate improves IH, EDS, SI, and BF symptoms; none of the other treatment options in Table 6 improve symptoms in all of the instant sleep disorder. […] Additionally, serdexmethylphenidate has advantageous dosing amounts and dosing schedules compared to both XYWAV® and LUMRYZ®. For example, XYWAV® requires two nighttime dosages, whereas serdexmethylphenidate reduces sleep disorder symptoms with only a single dose before bedtime.

[8] = test system: adults with IH; test: Phase 2 IH study: Idiopathic Hypersomnia Severity Scale (IHSS); assay type: in vivo, human; conditions: for IHSS, Mean, Titration Baseline: before treatment; for IHSS, Mean, Randomization Baseline (Week 5): end of open-label titration; for IHSS, Difference in LS Mean (SE): SDX vs placebo, ANCOVA
Excerpt: “Idiopathic Hypersomnia Severity Scale” or “IHSS,” as it relates to the present technology, means a self-administered 14 question survey. Respondents are asked to rate on a 4-point scale (0-3) the severity of IH symptoms such as prolonged and/or unrefreshing daytime and nighttime sleep; impaired daytime alertness, and sleep inertia. The total possible score is 50 if all questions are rated at the maximum score. IHSS scores are generally interpreted as follows: 0-12, mild; 13-25, moderate; 26-38, severe; and 39-50, very severe.
as §1, §2, §3
The minimally clinically important difference for the IHSS is 4 points. The horizontal dashed line at an IHSS score of 22 points marks the boundary between “normal” individuals and individuals that may have a sleep disorder with more severe symptoms of idiopathic hypersomnia. Scores of 22 and less are generally considered “healthy” or “normal” whereas scores greater than 22 indicate symptoms of idiopathic hypersomnia.

[9] = Plasma PK of d-MPH after single oral dose administrations of 240, 360 and 480 mg SDX Cl
[10] = single 80 mg and single 200 mg doses
[11] = all patients, 5-week titration period
[12] = patients continuing treatment during the 2-week withdrawal period

## O=C(O)CCCO [oxybate]
[1]; in vivo
  TEAE anxiety: 11%
  TEAE dizziness: 12%
  TEAE headache: 18%
  TEAE nausea: 22 % of subjects
  TEAE vomiting: 11%
[1]; oxybate-treated patients
  Patients reporting worsening symptoms (PGI-C scale): 21%

## COC(=O)[C@H](c1ccccc1)[C@H]1CCCCN1C(=O)OC[n+]1cccc(C(=O)N[C@@H](CO)C(=O)O)c1 [SDX, serdexmethylphenidate]
[2]; BID Cohort, SDX (N = 17)
  ESS, Mean Change from Randomization Baseline to Week 7: 0.1
  ESS, Mean, End of Withdrawal Period (Week 7): 7.6
  ESS, Mean, Titration Baseline: 16.5
  ESS, Mean, Randomization Baseline (Week 5): 7.5
[2]; BID Cohort, p-value 0.005
  ESS, Difference in LS Mean (SE): −5.6 (1.88)
[2]; QD Cohort, SDX (N = 15)
  ESS, Mean Change from Randomization Baseline to Week 7: 0.0
  ESS, Mean, End of Withdrawal Period (Week 7): 7.5
  ESS, Mean, Titration Baseline: 16.9
  ESS, Mean, Randomization Baseline (Week 5): 7.5
[2]; QD Cohort, p-value 0.818
  ESS, Difference in LS Mean (SE): 0.5 (2.07)
[2]; both QD and BID cohorts, end of the 5-week titration period
  Decrease in mean ESS score: 8-10 points
[3]; BID Cohort, SDX (N = 17)
  SI-VAS, Mean Change from Randomization Baseline to Week 7: 1.1
  SI-VAS, Mean, End of Withdrawal Period (Week 7): 49.0
  SI-VAS, Mean, Titration Baseline: 68.5
  SI-VAS, Mean, Randomization Baseline (Week 5): 45.0
[3]; BID Cohort, p-value 0.104
  SI-VAS, Difference in LS Mean (SE): −10.0 (5.98)
[3]; BID dosing schedule
  Decrease in mean SI-VAS score: 24-30 points
[3]; QD Cohort, SDX (N = 15)
  SI-VAS, Mean Change from Randomization Baseline to Week 7: 5.9
  SI-VAS, Mean, End of Withdrawal Period (Week 7): 40.4
  SI-VAS, Mean, Titration Baseline: 68.8
  SI-VAS, Mean, Randomization Baseline (Week 5): 35.1
[3]; QD Cohort, p-value 0.208
  SI-VAS, Difference in LS Mean (SE): 8.2 (6.39)
[3]; QD dosing schedule
  Decrease in mean SI-VAS score: about 33 points
[3]; both QD and BID cohorts continuing treatment, 2-week withdrawal period
  Increase in mean SI-VAS score: less than 6 points
[4]; SDX 80 mg (N = 14)
  CL/F - Geo Mean: (283) L/h
[4]; SDX 200 mg (N = 14)
  CL/F - Geo Mean: (304) L/h
[4]; [10]
  AUC0-24 and AUCinf compared to Ritalin: higher
  Cmax concentrations compared to Ritalin: lower
  Tmax compared to Ritalin: longer
[5]; BID Cohort, SDX (N = 17)
  Brain Fog, Mean Change from Randomization Baseline to Week 7: 1.5
  Brain Fog, Mean, End of Withdrawal Period (Week 7): 30.1
  Brain Fog, Mean, Titration Baseline: 52.4
  Brain Fog, Mean, Randomization Baseline (Week 5): 28.6
[5]; BID Cohort, p-value 0.060
  Brain Fog, Difference in LS Mean (SE): −13.7 (7.07)
[5]; QD Cohort, SDX (N = 15)
  Brain Fog, Mean Change from Randomization Baseline to Week 7: 0.9
  Brain Fog, Mean, End of Withdrawal Period (Week 7): 28.5
  Brain Fog, Mean, Titration Baseline: 52.3
  Brain Fog, Mean, Randomization Baseline (Week 5): 27.5
[5]; QD Cohort, p-value 0.995
  Brain Fog, Difference in LS Mean (SE): 0.0 (7.50)
[5]; [11]
  Decrease in mean BFS score: 19-25 points
[5]; [12]
  Change in mean BFS score: no more than 1.5 points
[6]
  Total plasma exposure to d-methylphenidate (AUC0-24h and AUCinf): similar
[7]
  Abnormal Rapid Eye Movement (REM) sleep cycles: does not result in abnormal Rapid Eye Movement (REM) sleep cycles
  IH, EDS, SI, and BF symptoms: improves
[8]; BID Cohort, SDX (N = 17)
  IHSS, Mean Change from Randomization Baseline to Week 7: 0.3
  IHSS, Mean, End of Withdrawal Period (Week 7): 21.6
  IHSS, Mean, Titration Baseline: 34.3
  IHSS, Mean, Randomization Baseline (Week 5): 21.3
[8]; BID Cohort, p-value 0.104
  IHSS, Difference in LS Mean (SE): −9.0 (3.48)
[8]; QD Cohort, SDX (N = 15)
  IHSS, Mean Change from Randomization Baseline to Week 7: 0.7
  IHSS, Mean, End of Withdrawal Period (Week 7): 19.3
  IHSS, Mean, Titration Baseline: 35.4
  IHSS, Mean, Randomization Baseline (Week 5): 18.6
[8]; QD Cohort, p-value 0.208
  IHSS, Difference in LS Mean (SE): 0.9 (3.73)
[8]; [11]
  Decrease in mean IHSS score: 12-17 points
[8]; [12]
  Change in mean IHSS score: no more than 0.7 points

## COC(=O)[C@H](c1ccccc1)[C@H]1CCCCN1C(=O)OC[n+]1cccc(C(=O)N[C@@H](CO)C(=O)O)c1.[Cl-] [SDX Cl, 3-[[[(1S)-1-carboxy-2-hydroxyethyl]amino]carbonyl]-1-[[[[(2R)-2-[(1R)-2-methoxy-2-oxo-1-phenylethyl]-1-piperidinyl]carbonyl]oxy]methyl]pyridinium chloride]
[9]; single oral dose 240 mg SDX Cl, N = 14
  CL/F: 384 L/h
[9]; single oral dose 360 mg SDX Cl, N = 10
  CL/F: 387 L/h
[9]; single oral dose 480 mg SDX Cl, N = 7
  CL/F: 297 L/h
